Among the data in ChEMBL document CHEMBL3608278 (J Med Chem, 2015) are IC50 values, retold here.

Assay [1] concerns the target T1, Potassium voltage-gated channel subfamily A member 3 (Homo sapiens, UniProt P22001). The arrangement: species or system Blood.
Assay [2] has as its target T1, Potassium voltage-gated channel subfamily A member 3. The assay is classed as cell-based, CHO-K1.
Assay [3] has the same target. Kind of assay: cell-based. Also noted: species or system Blood.

T1 sequence (P22001 whole entry): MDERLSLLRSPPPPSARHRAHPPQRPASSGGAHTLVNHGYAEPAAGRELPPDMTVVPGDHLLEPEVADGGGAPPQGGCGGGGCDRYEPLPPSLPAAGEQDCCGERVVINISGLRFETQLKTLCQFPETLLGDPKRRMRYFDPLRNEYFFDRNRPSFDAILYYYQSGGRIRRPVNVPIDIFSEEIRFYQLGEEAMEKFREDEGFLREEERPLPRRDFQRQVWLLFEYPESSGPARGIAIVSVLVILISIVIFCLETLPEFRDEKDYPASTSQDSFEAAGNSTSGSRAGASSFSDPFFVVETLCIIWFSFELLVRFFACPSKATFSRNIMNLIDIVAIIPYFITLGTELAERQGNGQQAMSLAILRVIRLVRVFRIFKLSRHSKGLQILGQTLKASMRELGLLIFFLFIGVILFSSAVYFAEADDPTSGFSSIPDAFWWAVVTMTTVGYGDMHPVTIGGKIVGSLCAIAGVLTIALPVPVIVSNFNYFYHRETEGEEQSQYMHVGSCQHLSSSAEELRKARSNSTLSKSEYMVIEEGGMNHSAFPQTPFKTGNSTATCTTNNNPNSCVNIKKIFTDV

As for `CC[C@H](C)[C@@H]1NC(=O)[C@@H](NC(=O)[C@H](CO)NC(=O)[C@@H](N)CCCNC(=N)N)CSSC[C@@H](C(=O)O)NC(=O)[C@H]([C@@H](C)O)NC(=O)CNC(=O)[C@@H]2CSSC[C@@H]3NC(=O)[C@H](CCC(N)=O)NC(=O)[C@H](Cc4ccccc4)NC(=O)[C@H](C)NC(=O)[C@H]([C@@H](C)O)NC(=O)[C@H](CSSC[C@H](NC(=O)[C@H](Cc4ccccc4)NC(=O)[C@H](CO)NC(=O)[C@H](CC(C)C)NC(=O)[C@H](CCCNC(=N)N)NC(=O)[C@H](Cc4ccc(O)cc4)NC(=O)[C@H](CCCCN)NC(=O)[C@H](CCSC)NC(=O)[C@H](CO)NC(=O)[C@H](Cc4cnc[nH]4)NC(=O)[C@H](CCCCN)NC3=O)C(=O)N[C@@H](CCCNC(=N)N)C(=O)N[C@@H](CCCCN)C(=O)N[C@@H]([C@@H](C)O)C(=O)N2)NC(=O)[C@H](CCCNC(=N)N)NC(=O)[C@H](CO)NC(=O)[C@H](CCCCN)NC(=O)[C@H](C)NC(=O)[C@H]([C@@H](C)CC)NC(=O)[C@H]([C@@H](C)O)NC(=O)[C@H](CC(=O)O)NC1=O`, the IC50 (as a rule, the concentration at which inhibition is half-maximal) in assay [1] amounted to 0.066 nM; in assay [2], 0.079 nM; in assay [3], 0.034 nM.

`CC[C@H](C)[C@@H]1NC(=O)[C@@H](NC(=O)[C@H](CO)NC(=O)[C@@H](N)CCCNC(=N)N)CSSC[C@@H](C(=O)O)NC(=O)[C@H]([C@@H](C)O)NC(=O)CNC(=O)[C@@H]2CSSC[C@@H]3NC(=O)[C@H](CCC(N)=O)NC(=O)[C@H](Cc4ccccc4)NC(=O)[C@H](C)NC(=O)[C@H]([C@@H](C)O)NC(=O)[C@H](CSSC[C@H](NC(=O)[C@H](Cc4ccccc4)NC(=O)[C@H](CO)NC(=O)[C@H](CC(C)C)NC(=O)[C@H](CCCNC(=N)N)NC(=O)[C@H](Cc4ccc(O)cc4)NC(=O)[C@H](CCCCN)NC(=O)[C@H](CCSC)NC(=O)[C@H](CO)NC(=O)[C@H](Cc4cnc[nH]4)NC(=O)[C@H](CCCCN)NC3=O)C(=O)N[C@@H](CCCNC(=N)N)C(=O)N[C@@H](CCCCN)C(=O)N[C@@H]([C@@H](C)O)C(=O)N2)NC(=O)[C@H](CCCNC(=N)N)NC(=O)[C@H](CO)NC(=O)[C@H](C)NC(=O)[C@@H]2CCCN2C(=O)[C@H]([C@@H](C)CC)NC(=O)[C@H]([C@@H](C)O)NC(=O)[C@H](CC(=O)O)NC1=O`: the IC50 in assay [1] was 0.081 nM; in assay [2], 0.119 nM; in assay [3], 0.045 nM.

On to `CC[C@H](C)[C@@H]1NC(=O)[C@@H](NC(=O)[C@H](CO)NC(=O)[C@@H](N)CCCNC(=N)N)CSSC[C@@H](C(=O)O)NC(=O)[C@H]([C@@H](C)O)NC(=O)CNC(=O)[C@@H]2CSSC[C@@H]3NC(=O)[C@H](CCC(N)=O)NC(=O)[C@H](Cc4ccccc4)NC(=O)[C@H](C)NC(=O)[C@H]([C@@H](C)O)NC(=O)[C@H](CSSC[C@H](NC(=O)[C@H](Cc4ccccc4)NC(=O)[C@H](CO)NC(=O)[C@H](CC(C)C)NC(=O)[C@H](CCCNC(=N)N)NC(=O)[C@H](Cc4ccc(O)cc4)NC(=O)[C@H](CCCCN)NC(=O)[C@H](CCSC)NC(=O)[C@H](CO)NC(=O)[C@H](C)NC(=O)[C@H](CCCCN)NC3=O)C(=O)N[C@@H](CCCNC(=N)N)C(=O)N[C@@H](CCCCN)C(=O)N[C@@H]([C@@H](C)O)C(=O)N2)NC(=O)[C@H](CCCNC(=N)N)NC(=O)[C@H](CO)NC(=O)[C@H](CCCCN)NC(=O)[C@@H]2CCCN2C(=O)[C@H]([C@@H](C)CC)NC(=O)[C@H]([C@@H](C)O)NC(=O)[C@H](CC(=O)O)NC1=O`, for which the IC50 turned out to be 0.556 nM in assay [1], 0.24 nM in assay [2] and 0.301 nM in assay [3].

As for `CC[C@H](C)[C@@H]1NC(=O)[C@@H](NC(=O)[C@H](CO)NC(=O)[C@@H](N)CCCNC(=N)N)CSSC[C@@H](C(=O)O)NC(=O)[C@H]([C@@H](C)O)NC(=O)CNC(=O)[C@@H]2CSSC[C@@H]3NC(=O)[C@H](CCC(N)=O)NC(=O)[C@H](Cc4ccccc4)NC(=O)[C@H](C)NC(=O)[C@H]([C@@H](C)O)NC(=O)[C@H](CSSC[C@H](NC(=O)[C@H](Cc4ccccc4)NC(=O)[C@H](CO)NC(=O)[C@H](CC(C)C)NC(=O)[C@H](CCCNC(=N)N)NC(=O)[C@H](C)NC(=O)[C@H](CCCCN)NC(=O)[C@H](CCSC)NC(=O)[C@H](CO)NC(=O)[C@H](Cc4cnc[nH]4)NC(=O)[C@H](CCCCN)NC3=O)C(=O)N[C@@H](CCCNC(=N)N)C(=O)N[C@@H](CCCCN)C(=O)N[C@@H]([C@@H](C)O)C(=O)N2)NC(=O)[C@H](CCCNC(=N)N)NC(=O)[C@H](CO)NC(=O)[C@H](CCCCN)NC(=O)[C@@H]2CCCN2C(=O)[C@H]([C@@H](C)CC)NC(=O)[C@H]([C@@H](C)O)NC(=O)[C@H](CC(=O)O)NC1=O`, the results for the half-maximal inhibitory concentration (IC50) in assay [1], in assay [2] and in assay [3] were 5.67 nM, 0.261 nM and 3.09 nM, respectively.

On to `CC[C@H](C)[C@@H]1NC(=O)[C@@H](NC(=O)[C@H](CO)NC(=O)[C@@H](N)CCCNC(=N)N)CSSC[C@@H](C(=O)O)NC(=O)[C@H]([C@@H](C)O)NC(=O)CNC(=O)[C@@H]2CSSC[C@@H]3NC(=O)[C@H](CCC(N)=O)NC(=O)[C@H](Cc4ccccc4)NC(=O)[C@H](C)NC(=O)[C@H]([C@@H](C)O)NC(=O)[C@H](CSSC[C@H](NC(=O)[C@H](C)NC(=O)[C@H](CO)NC(=O)[C@H](CC(C)C)NC(=O)[C@H](CCCNC(=N)N)NC(=O)[C@H](Cc4ccc(O)cc4)NC(=O)[C@H](CCCCN)NC(=O)[C@H](CCSC)NC(=O)[C@H](CO)NC(=O)[C@H](Cc4cnc[nH]4)NC(=O)[C@H](CCCCN)NC3=O)C(=O)N[C@@H](CCCNC(=N)N)C(=O)N[C@@H](CCCCN)C(=O)N[C@@H]([C@@H](C)O)C(=O)N2)NC(=O)[C@H](CCCNC(=N)N)NC(=O)[C@H](CO)NC(=O)[C@H](CCCCN)NC(=O)[C@@H]2CCCN2C(=O)[C@H]([C@@H](C)CC)NC(=O)[C@H]([C@@H](C)O)NC(=O)[C@H](CC(=O)O)NC1=O`, for which the IC50 in assay [1] is 8.01 nM; in assay [2], 0.275 nM; in assay [3], 1.5 nM.

For the molecule `CC[C@H](C)[C@@H]1NC(=O)[C@@H](NC(=O)[C@H](CO)NC(=O)[C@@H](N)CCCNC(=N)N)CSSC[C@@H](C(=O)O)NC(=O)[C@H]([C@@H](C)O)NC(=O)CNC(=O)[C@@H]2CSSC[C@@H]3NC(=O)[C@H](CCC(N)=O)NC(=O)[C@H](Cc4ccccc4)NC(=O)[C@H](C)NC(=O)[C@H]([C@@H](C)O)NC(=O)[C@H](CSSC[C@H](NC(=O)[C@H](Cc4ccccc4)NC(=O)[C@H](CO)NC(=O)[C@H](CC(C)C)NC(=O)[C@H](CCCNC(=N)N)NC(=O)[C@H](Cc4ccc(O)cc4)NC(=O)[C@H](CCCCN)NC(=O)[C@H](CCSC)NC(=O)[C@H](CO)NC(=O)[C@H](Cc4cnc[nH]4)NC(=O)[C@H](CCCCN)NC3=O)C(=O)N[C@@H](CCCNC(=N)N)C(=O)N[C@@H](C)C(=O)N[C@@H]([C@@H](C)O)C(=O)N2)NC(=O)[C@H](CCCNC(=N)N)NC(=O)[C@H](CO)NC(=O)[C@H](CCCCN)NC(=O)[C@@H]2CCCN2C(=O)[C@H]([C@@H](C)CC)NC(=O)[C@H]([C@@H](C)O)NC(=O)[C@H](CC(=O)O)NC1=O`, the concentration for half-maximal inhibition (IC50) worked out at 0.308 nM in assay [1], 0.173 nM in assay [2] and 0.186 nM in assay [3].
